Test results taken from patent US7491495B2, “Adsorption of nucleic acids to a solid phase” (Roche Diagnostics Operations, Inc., priority 2004, dated 2009).
Like-named read-outs stand apart in the source and are kept apart here.

Target: proteinase K (Parengyodontium album, UniProt P06873)
Conditions: relative to 0 min control buffer without chaotropic agent (0.5 U/ml = 100%); for Activity of proteinase K at t = 0 min: 0 min value; for Activity of proteinase K at t = 15 min: 15 min value
Experimental: 10 μl of a 20 mg/ml stock solution of proteinase K (Roche Diagnostics GmbH, Mannheimm, catalogue no. 745723; 90 mg dissolved in 4.5 ml water) was mixed with a chaotropic buffer containing 50 mM Tris-HCl pH 6.0, 1% DTT, 20% TRITON X-100 and x M Guanidinum thiocyanate; x=0, 1, 2, 3, 4, 5, 6). Directly after mixing the proteinase K activity was measured in a first aliquot (10 μl) of the mixture using the assay described below (0 min activity value). 15 min after mixing the proteinase K activity was measured in a second aliquot (10 μl) of the mixture using the assay described below (15 min activity value).
10 μl of the proteinase K in chaotropic buffer (see above, (A)) were mixed with assay buffer, that is to say 980 μl 0.2 M Triethanolamin, 0.05% (weight by volume) PEG 6000, 0.1 M Calcium chloride, and 10 μl of a 200 mM substate solution. The substrate was Suc-Ala-Ala-Ala-p-Nitroanilid. The assay buffer was provided in a cuvette. Immediately after mixing the cuvette was placed in a Photometer. Measurements (absorption) were taken over 15 min at 25° C. The activity of proteinase K in the assay buffer was calculated from the kinetics as indicated by a change in absorption at 405 nm.
Table 1 lists the 0 min values of the activity of proteinase K in the presence of guanidinium thiocyanate at the different concentrations given in (A). Table 2 lists the 15 min values of the activity of proteinase K in the presence of guanidinium thiocyanate at the different concentrations given in (A) as well as the control value (no chaotropic agent present). The values are expressed in relation to the 0 min activity value of proteinase K in the control buffer without chaotropic agent (see (A)), corresponding to 0.5 U/ml; this value was set as 100%. The data of Table 1 and Table 2 are graphically represented in FIG. 1 and FIG. 2.

proteinase K, sequence (P06873 106-384): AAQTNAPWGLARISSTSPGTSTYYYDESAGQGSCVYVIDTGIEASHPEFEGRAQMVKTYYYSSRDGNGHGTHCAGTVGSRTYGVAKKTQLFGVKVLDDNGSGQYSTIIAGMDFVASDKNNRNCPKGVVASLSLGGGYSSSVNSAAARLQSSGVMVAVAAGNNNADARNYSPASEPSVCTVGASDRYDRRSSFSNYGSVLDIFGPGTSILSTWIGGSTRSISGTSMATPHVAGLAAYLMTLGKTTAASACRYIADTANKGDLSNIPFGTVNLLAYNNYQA

N#CS.N=C(N)N [guanidinium thiocyanate]
Activity of proteinase K at t = 0 min (1 M guanidinium thiocyanate): 94% | Activity of proteinase K at t = 15 min (1 M guanidinium thiocyanate): 95% | Activity of proteinase K at t = 0 min (2 M guanidinium thiocyanate): 100% | Activity of proteinase K at t = 15 min (2 M guanidinium thiocyanate): 95% | Activity of proteinase K at t = 0 min (3 M guanidinium thiocyanate): 66% | Activity of proteinase K at t = 15 min (3 M guanidinium thiocyanate): 1% | Activity of proteinase K at t = 0 min (4 M guanidinium thiocyanate): 1% | Activity of proteinase K at t = 15 min (4 M guanidinium thiocyanate): 0% | Activity of proteinase K at t = 0 min (5 M guanidinium thiocyanate): 0% | Activity of proteinase K at t = 15 min (5 M guanidinium thiocyanate): 0% | Activity of proteinase K at t = 0 min (6 M guanidinium thiocyanate): 0% | Activity of proteinase K at t = 15 min (6 M guanidinium thiocyanate): 0%
